From article PMC6010130, “Inhibition of Leishmania infantum trypanothione reductase by diaryl sulfide derivatives” (Journal of Enzyme Inhibition and Medicinal Chemistry, 2017)

Key:
[1] = target: T1, trypanothione reductase (TR) (Leishmania infantum, UniProt A4HSF7); assay: X-ray crystal structure ([…] Å); type: binding
T1 construct: gene TRYR

[2] = target: T1, trypanothione reductase (TR); assay: X-ray crystal structure ([…] Å, soaked oxidized TR); Ki from Dixon plot of the purified enzyme (NADPH oxidation at […] nm); type: biochemical

T1 sequence (A4HSF7 1-491): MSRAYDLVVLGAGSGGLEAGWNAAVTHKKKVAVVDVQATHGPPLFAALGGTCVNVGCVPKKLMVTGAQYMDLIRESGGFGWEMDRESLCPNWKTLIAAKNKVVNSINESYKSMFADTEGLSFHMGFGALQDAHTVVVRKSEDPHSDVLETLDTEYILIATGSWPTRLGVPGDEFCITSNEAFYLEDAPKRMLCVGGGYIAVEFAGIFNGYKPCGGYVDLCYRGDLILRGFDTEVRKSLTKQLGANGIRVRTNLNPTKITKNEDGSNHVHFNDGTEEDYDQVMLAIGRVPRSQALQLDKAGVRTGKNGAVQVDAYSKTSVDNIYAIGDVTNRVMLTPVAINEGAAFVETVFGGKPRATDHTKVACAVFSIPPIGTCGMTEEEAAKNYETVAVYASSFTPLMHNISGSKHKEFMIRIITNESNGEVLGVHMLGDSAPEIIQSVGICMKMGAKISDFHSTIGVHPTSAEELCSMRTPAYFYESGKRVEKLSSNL

Compound: Cc1cc2nc3c(=O)[nH]c(=O)nc-3n(C[C@H](O)[C@H](O)[C@H](O)COP(=O)(O)OP(=O)(O)OC[C@H]3O[C@@H](n4cnc5c(N)ncnc54)[C@H](O)[C@@H]3O)c2cc1C [FAD]
- X-ray crystal structure (3.5 Å) [1]: Each monomer contains a FAD molecule.

Compound: CCC(C)Oc1cc(N)nc(Sc2cccc(Cl)c2)n1 (centres unmarked) [RDS 777, 6-(sec-butoxy)-2-((3-chlorophenyl)thio)pyrimidin-4-amine]
- Ki [2]: 250 ± 180 nM
